# Source: patent US11927585B2, “Solvent-based inks and coatings for food contact applications” (SUN CHEMICAL CORPORATION, priority 2020, dated 2024)
# Experiments:
# [1] = Worst-case calculation, Application 2 cheese packaging wrap exposure scenario; settings: 100% migration, 2.0 g/m^2 dry film
# [2] = Worst-case calculation (100% migration), standard EU Cube exposure model; settings: 100% migration; for Worst-case calculation as a percentage of SML (or restriction), EU Cube: 2.0 g/m^2 dry film; for Worst Case Calculation of migration in EU Cube model (as a percentage of SML): dry coat weight 2.0 g/m^2
# [3] = Worst-case calculation, Application 1 yoghurt pot lid exposure scenario; settings: 100% migration, 2.0 g/m^2 dry film
# [4] = Specific migration limit (SML) from regulation or hazard assessment (TTC, VEGA QSAR, Cramer Class); settings: source HA (internal hazard assessment), self-derived SML; EU Cube model
# [5] = substance in ink SBDEV976 (Ex. 4C Cyan)
# [6] = substance in ink SBDEV977 (Ex. 4A Yellow)
# [7] = substance in ink SBDEV979 (Ex. 4D Black)
# [8] = substance in ink SBDEV980 (Ex. 4B Red)
SMILES,"Worst-case calculation as a percentage of SML (or restriction), Application 2 ([1]; product SBDEV976)","Worst-case calculation as a percentage of SML (or restriction), Application 2 ([1]; product SBDEV977)","Worst-case calculation as a percentage of SML (or restriction), Application 2 ([1]; product SBDEV980)","Worst-case calculation as a percentage of SML (or restriction), Application 2 ([1]; product SBDEV1284)","Worst-case calculation as a percentage of SML (or restriction), Application 2 ([1]; product SBDEV1285)","Worst-case calculation as a percentage of SML (or restriction), Application 2 ([1]; product SBDEV1286)","Worst-case calculation as a percentage of SML (or restriction), Application 2 ([1]; product SBDEV1287)","Worst-case calculation as a percentage of SML (or restriction), EU Cube ([2]; product SBDEV976)","Worst-case calculation as a percentage of SML (or restriction), EU Cube ([2]; product SBDEV977)","Worst-case calculation as a percentage of SML (or restriction), EU Cube ([2]; product SBDEV980)","Worst-case calculation as a percentage of SML (or restriction), EU Cube ([2]; product SBDEV1284)","Worst-case calculation as a percentage of SML (or restriction), EU Cube ([2]; product SBDEV1285)","Worst-case calculation as a percentage of SML (or restriction), EU Cube ([2]; product SBDEV1286)","Worst-case calculation as a percentage of SML (or restriction), EU Cube ([2]; product SBDEV1287)","Worst Case Calculation of migration in EU Cube model (as a percentage of SML) [2, 5]","Worst Case Calculation of migration in EU Cube model (as a percentage of SML) [2, 6]","Worst Case Calculation of migration in EU Cube model (as a percentage of SML) [2, 8]","Worst-case calculation as a percentage of SML (or restriction), Application 1 ([3]; product SBDEV980)","Worst-case calculation as a percentage of SML (or restriction), Application 1 ([3]; product SBDEV1285)",SML or Restriction (mg substance/kg food) [4],also measured
"O=C1NCCN1 [0000120-93-4, 2-Imidazolidinone]",23.0 percentage of SML (or restriction),21.6 percentage of SML (or restriction),23.0 percentage of SML (or restriction),15.8 percentage of SML (or restriction),17.3 percentage of SML (or restriction),17.3 percentage of SML (or restriction),15.8 percentage of SML (or restriction),16 percentage of SML (or restriction),15 percentage of SML (or restriction),16 percentage of SML (or restriction),11 percentage of SML (or restriction),12 percentage of SML (or restriction),12 percentage of SML (or restriction),11 percentage of SML (or restriction),16 percentage of SML,15 percentage of SML,16 percentage of SML,6.3 percentage of SML (or restriction),4.7 percentage of SML (or restriction),4.98 mg substance/kg food,"Worst-case calculation as a percentage of SML (or restriction), Application 2 ([1]; product SBDEV979): 21.6 percentage of SML (or restriction); Worst-case calculation as a percentage of SML (or restriction), EU Cube ([2]; product SBDEV979): 15 percentage of SML (or restriction); Worst Case Calculation of migration in EU Cube model (as a percentage of SML) [2, 7]: 15 percentage of SML; Worst-case calculation as a percentage of SML (or restriction), Application 1 ([3]; product SBDEV976): 6.3 percentage of SML (or restriction); Worst-case calculation as a percentage of SML (or restriction), Application 1 ([3]; product SBDEV977): 5.9 percentage of SML (or restriction); Worst-case calculation as a percentage of SML (or restriction), Application 1 ([3]; product SBDEV979): 5.9 percentage of SML (or restriction); Worst-case calculation as a percentage of SML (or restriction), Application 1 ([3]; product SBDEV1284): 4.3 percentage of SML (or restriction); Worst-case calculation as a percentage of SML (or restriction), Application 1 ([3]; product SBDEV1286): 4.7 percentage of SML (or restriction); Worst-case calculation as a percentage of SML (or restriction), Application 1 ([3]; product SBDEV1287): 4.3 percentage of SML (or restriction)"
"CCCC1OC(CCC)OC(CCC)O1 (centres unmarked) [0002396-43-2, 2,4,6-tripropyl-1,3,5-Trioxane]",87.8 percentage of SML (or restriction),96.5 percentage of SML (or restriction),95.0 percentage of SML (or restriction),95.0 percentage of SML (or restriction),96.5 percentage of SML (or restriction),87.8 percentage of SML (or restriction),97.9 percentage of SML (or restriction),61 percentage of SML (or restriction),67 percentage of SML (or restriction),60 percentage of SML (or restriction),66 percentage of SML (or restriction),67 percentage of SML (or restriction),61 percentage of SML (or restriction),68 percentage of SML (or restriction),61 percentage of SML,67 percentage of SML,66 percentage of SML,26.0 percentage of SML (or restriction),26.4 percentage of SML (or restriction),0.09 mg substance/kg food,"Worst Case Calculation of migration in EU Cube model (as a percentage of SML) [2, 7]: 65 percentage of SML; Worst-case calculation as a percentage of SML (or restriction), Application 1 ([3]; product SBDEV976): 24.0 percentage of SML (or restriction); Worst-case calculation as a percentage of SML (or restriction), Application 1 ([3]; product SBDEV977): 26.4 percentage of SML (or restriction); Worst-case calculation as a percentage of SML (or restriction), Application 1 ([3]; product SBDEV1284): 26.0 percentage of SML (or restriction); Worst-case calculation as a percentage of SML (or restriction), Application 1 ([3]; product SBDEV1286): 24.0 percentage of SML (or restriction); Worst-case calculation as a percentage of SML (or restriction), Application 1 ([3]; product SBDEV1287): 26.7 percentage of SML (or restriction)"
"N#Cc1ccc(-c2ccccc2)cc1 [0002920-38-9, 4-Phenylbenzonitrile]",–,–,7.2 percentage of SML (or restriction),–,7.2 percentage of SML (or restriction),–,–,–,–,5 percentage of SML (or restriction),–,5 percentage of SML (or restriction),–,–,–,–,5 percentage of SML,2.0 percentage of SML (or restriction),2.0 percentage of SML (or restriction),0.09 mg substance/kg food,–
"NC(=O)c1ccc(-c2ccccc2)cc1 [0003815-20-1, 4-Phenylbenzamide]",–,–,331.2 percentage of SML (or restriction),–,331.2 percentage of SML (or restriction),–,–,–,–,230 percentage of SML (or restriction),–,230 percentage of SML (or restriction),–,–,–,–,230 percentage of SML,90.5 percentage of SML (or restriction),90.5 percentage of SML (or restriction),0.09 mg substance/kg food,–
